Structures can show the parent of a compound that is named as a salt. Where two headings read alike, the source gives them in different places.

As a reminder, the GI50 is the concentration at which growth is held to half of that of the control. Lower therefore signals more potent growth inhibition.

Data set [1] relates to HCT116. As to the kind of experiment: Inhibition of cancer cell proliferation (MTT). Type of data set: cell-based, human.
The subject of data set [2] is SH-SY5Y. Put plainly: Inhibition of cancer cell proliferation (MTT). Type of data set: cell-based, human. In short, it runs like this: (§1)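 72 h MTT proliferation assay; cells seeded at 3000/well (A549, SK-N-SH, SH-SY5Y, NCI-H23) and attached 16 h at 37 °C, then treated at 0.004–10 uM with 0.08% DMSO control. Absorbance at 535 nm read after 2 h MTT; GI50 from viability relative to untreated control.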

The subject of data set [3] is SK-N-SH. Put plainly: Inhibition of cancer cell proliferation (MTT). It counts as cell-based, human. Summed up: as §1
The subject of data set [4] is U-87MG. Put plainly: Inhibition of cancer cell proliferation (MTT). Type of data set: cell-based, human. In short, it runs like this:
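Absorbance at 535 nm of DMSO-dissolved formazan (2 h MTT) gives viability versus 0.08% DMSO-treated cells, and GI50 is derived from eight concentrations between 0.004 and 10 uM. Exposure lasts 72 h at 37 °C, 5% CO2, using 3000 cells/well in 10% FBS medium ([…] for NCI-H23, otherwise DMEM).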

The target in data set [5] is T1, CDK1/cyclinB (Homo sapiens, UniProt P06493).
T1 construct: purchased Merck Millipore
T1 sequence (P06493 whole entry): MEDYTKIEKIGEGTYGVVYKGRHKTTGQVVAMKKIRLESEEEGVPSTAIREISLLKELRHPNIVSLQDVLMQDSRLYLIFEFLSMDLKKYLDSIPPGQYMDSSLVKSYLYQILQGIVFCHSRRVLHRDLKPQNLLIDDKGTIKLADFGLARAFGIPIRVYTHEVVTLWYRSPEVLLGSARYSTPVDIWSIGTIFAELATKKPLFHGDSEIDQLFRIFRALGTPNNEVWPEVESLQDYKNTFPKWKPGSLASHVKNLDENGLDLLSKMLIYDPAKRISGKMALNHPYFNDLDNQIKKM
T1 sequence (P14635 whole entry partner): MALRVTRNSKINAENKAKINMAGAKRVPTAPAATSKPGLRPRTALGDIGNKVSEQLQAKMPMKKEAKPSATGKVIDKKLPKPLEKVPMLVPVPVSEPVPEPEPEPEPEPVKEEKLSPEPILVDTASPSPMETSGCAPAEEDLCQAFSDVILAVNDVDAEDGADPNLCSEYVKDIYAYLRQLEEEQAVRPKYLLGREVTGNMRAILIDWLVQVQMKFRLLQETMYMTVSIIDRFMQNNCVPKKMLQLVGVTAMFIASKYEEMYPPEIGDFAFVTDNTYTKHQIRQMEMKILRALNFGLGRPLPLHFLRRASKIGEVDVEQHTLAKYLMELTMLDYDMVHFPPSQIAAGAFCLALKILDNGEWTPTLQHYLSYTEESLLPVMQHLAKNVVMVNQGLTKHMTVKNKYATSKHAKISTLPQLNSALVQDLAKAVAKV
As to the kind of experiment: Inhibition of CDK enzyme activity (ADP-Glo kinase assay). Type of data set: biochemical. The note with it: 10 uM ATP, histone H1 substrate. The protocol: (§2) Test compounds were prepared by dissolving the compounds obtained in the above Examples in dimethylsulfoxide (DMSO) at a concentration of 10 mM. The test compounds were diluted to 200 nM, 50 nM, […], 3.13 nM, 0.78 nM, and 0.2 nM and used in an enzyme reaction.
(§3) CDK enzyme reaction was conducted in a buffer containing 50 mM Tris-HCl (pH 7.5), 10 mM MgCl2, 1 mM EGTA, 1 mM EDTA, and 2 mM DTT. CDK1/cyclinB, CDK2/cylcinE, CDK5/p25, and CDK6/cyclinD3 enzymes commercially available from Merck Millipore were used for CDK1, CDK2, CDK5, and CDK6 enzymes, respectively, and CDK4/cyclinD1 enzyme commercially available from Signalchem (US) was used for CDK4. For CDK1, a reaction proceeded by adding 10 nM CDK1/cyclinB and 0.125 mg/ml histone H1 (Merck Millipore) substrate to the buffer and then adding 10 uM ATP thereto. For CDK2, a reaction was proceeded by adding 10 nM CDK2/cyclinE and 0.125 mg/ml histone H1 substrate to the buffer and then adding 10 uM ATP thereto. For CDK5, a reaction was proceeded by adding 10 nM CDK5/p25 and 0.125 mg/ml histone H1 substrate to the buffer and then adding 10 uM ATP thereto. For CDK4, a reaction was proceeded by adding 20 nM CDK4/cyclinD1 and 0.125 mg/ml Rb protein (Merck Millipore) to the buffer and then adding 10 uM ATP thereto. For CDK6, a reaction was proceeded by adding 50 nM CDK6/cyclinD3 and 0.125 mg/ml histone H1 substrate to the buffer and then adding 10 uM ATP thereto. Each enzyme reaction was incubated at 30° C. for 60 min. Then, the amount of ADP produced was measured using Victor X4 instrument (Perkin Elmer) after generating luminescence using ADP-Glo kinase assay kit (Promega, US). An inhibition effect on each enzyme was represented as a percentage of the luminescence value in the presence of the test compounds relative to the luminescence value without the test compounds. IC50 (nM) is the concentration of the compound to inhibit 50% of the enzyme activity.

Data set [6] deals with T2, CDK2/cyclinE (Homo sapiens, UniProt P24941).
T2 construct: purchased Merck Millipore
The description is as above. It counts as biochemical. The following applies: 10 uM ATP, histone H1 substrate. The method, then:
as §2, §3

In data set [7] the target is T3, CDK4/cyclinD1 (Homo sapiens, UniProt P11802).
T3 construct: purchased Signalchem (US)
T3 sequence (P11802 whole entry): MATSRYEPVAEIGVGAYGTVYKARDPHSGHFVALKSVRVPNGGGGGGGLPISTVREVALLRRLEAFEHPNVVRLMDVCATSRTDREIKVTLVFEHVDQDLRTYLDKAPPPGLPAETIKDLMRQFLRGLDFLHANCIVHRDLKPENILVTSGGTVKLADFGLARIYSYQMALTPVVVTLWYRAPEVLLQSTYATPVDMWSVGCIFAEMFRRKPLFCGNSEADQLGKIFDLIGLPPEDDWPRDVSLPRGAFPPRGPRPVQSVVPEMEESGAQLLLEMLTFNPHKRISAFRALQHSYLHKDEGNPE
T3 sequence (P24385 whole entry partner): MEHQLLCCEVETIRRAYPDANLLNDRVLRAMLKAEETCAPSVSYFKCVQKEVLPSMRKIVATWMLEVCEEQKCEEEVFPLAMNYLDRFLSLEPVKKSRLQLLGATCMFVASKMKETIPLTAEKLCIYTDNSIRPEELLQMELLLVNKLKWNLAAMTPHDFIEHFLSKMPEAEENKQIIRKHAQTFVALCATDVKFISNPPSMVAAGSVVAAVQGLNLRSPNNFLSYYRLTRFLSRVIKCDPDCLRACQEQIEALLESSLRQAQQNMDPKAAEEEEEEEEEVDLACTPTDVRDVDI
The data set is described as above. It counts as biochemical. The following applies: 10 uM ATP, Rb protein substrate; read-out: IC50 CDK4/cyclinD. The protocol: as §2, §3

Data set [8] has as its target T4, CDK5/p25 (Homo sapiens, UniProt Q00535).
T4 construct: purchased Merck Millipore
The description is as above. It counts as biochemical. The following applies: 10 uM ATP, histone H1 substrate. The protocol: as §2, §3

For data set [9], the target named is T5, CDK6/cyclinD3 (Homo sapiens, UniProt Q00534).
T5 construct: purchased Merck Millipore
T5 sequence (Q00534 whole entry): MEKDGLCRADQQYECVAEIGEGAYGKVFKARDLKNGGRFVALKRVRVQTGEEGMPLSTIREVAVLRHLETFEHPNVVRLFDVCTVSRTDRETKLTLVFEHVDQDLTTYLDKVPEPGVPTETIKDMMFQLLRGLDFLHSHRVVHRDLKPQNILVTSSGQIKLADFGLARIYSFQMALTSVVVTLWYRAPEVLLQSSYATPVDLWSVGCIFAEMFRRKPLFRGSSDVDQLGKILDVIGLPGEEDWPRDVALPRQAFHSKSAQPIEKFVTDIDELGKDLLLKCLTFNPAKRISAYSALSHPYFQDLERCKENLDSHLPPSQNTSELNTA
T5 sequence (P30281 whole entry partner): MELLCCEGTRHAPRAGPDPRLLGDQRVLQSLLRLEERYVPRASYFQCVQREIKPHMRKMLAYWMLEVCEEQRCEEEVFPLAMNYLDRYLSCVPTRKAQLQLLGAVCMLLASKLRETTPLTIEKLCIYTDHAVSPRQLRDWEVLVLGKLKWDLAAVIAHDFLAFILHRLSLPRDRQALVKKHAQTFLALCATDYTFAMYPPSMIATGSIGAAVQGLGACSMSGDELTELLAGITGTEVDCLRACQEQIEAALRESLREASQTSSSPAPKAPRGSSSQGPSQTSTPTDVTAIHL
The description is as above. Type of data set: biochemical. The following applies: 10 uM ATP, histone H1 substrate; read-out: IC50 CDK6/cyclinD. The protocol:
as §2, §3

For data set [10], the system named is A549. As to the kind of experiment: Inhibition of cancer cell proliferation (MTT). The note with it: 72 hrs. Type of data set: cell-based, human. Summed up: as §1
Data set [11] concerns NCI-H23. Put plainly: Inhibition of cancer cell proliferation (MTT). Type of data set: cell-based, human. The following applies: 72 hrs. Summed up:
as §1

In data set [12] the test system is T98G. As to the kind of experiment: Inhibition of cancer cell proliferation (MTT). Type of data set: cell-based, human. In short, it runs like this: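 Plate 3000 cells/well and let them adhere for 16 h. Add compound (0.004, 0.013, 0.04, 0.12, 0.37, 1.1, 3.3, 10 uM; 0.08% DMSO) and culture for 72 h. Add MTT for 2 h, dissolve formazan in DMSO, read at 535 nm, and fit GI50.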

The subject of data set [13] is Tau protein. Put plainly: Inhibition of Tau phosphorylation (Western blot, pSer202) in SH-SY5Y cells. It counts as cell-based. The note with it: 4 hrs. The method, then:
SH-SY5Y cells expressing Tau protein were cultured in DMEM containing 10% FBS. 2.5×10^6 cells were placed in a 6-well plate and incubated at 5% CO2 and 37° C. for 16 hrs. The compounds obtained in the above Examples serially diluted ⅓ from 3 uM to 0.5 nM or the compounds in a concentration of 0.3, 0.1, 0.03, 0.01, 0.003 uM were treated for 4 hrs in DMEM containing 5% FBS. After 4 hrs, the culture solution was removed, washed with PBS, and cells were lysed by adding 100 ul of lysis buffer. The lysis buffer consisted of 50 mM Tris-HCl (pH 7.5), 150 mM NaCl, 5 mM EDT, 1 mM EGTA, 50 mM NaF, 1 mM PMSF, 1 mM Na3VO4, 2.5 mM DTT, 1% Triton X-100, and Protease inhibitor (Pierce). The lysed cells were centrifuged at 10,000 rpm and 4° C. for 10 min and the proteins in the supernatant were quantified. 25 ug of the proteins were electrophoresed on a SDS-PAGE gel and transferred to PVDF (Amersharm) membrane. The PVDF membrane was immersed in T-PBS containing 10% skim milk and shaken for 1 hr at room temperature. The primary antibody, Phosph-Tau[pSer202] (Abcam), diluted 1:1500 in T-PBS solution containing 5% skim milk was reacted with the membrane at room temperature for 2 hrs. The membrane was washed with T-PBS. The secondary antibody, Anti-rabbit IgG HRP, diluted 1:5000 was added to the membrane, reacted at room temperature for 1 hr, and washed.
On the technique in general: In western blotting, separated proteins are transferred to a membrane and probed.

Data set [14] in a line: Blood brain barrier permeation. Type of data set: in vivo, ICR mice. The following applies: mouse, 10 mg/kg, oral once 10 mg/kg. The method, then:
Using 9-week-old male ICR mice, the compounds obtained in the above Examples were orally administered once at a dose of 10 mg/kg or 30 mg/kg, and after 1 hr and 4 hrs, the concentrations of the compounds in the blood and brain of the mice were determined. 3 ICR mice were assigned in each group. Plasma was separated from the blood obtained after sacrificing the mice at each time, the brain of the mice was extracted, and the […] was washed with PBS, followed by pulverizing the brain tissue. The blood was placed in a test tube containing heparin to prevent coagulation and then was centrifuged at 12,000 rpm at 4° C. for 3 min to give a supernatant from which plasma was collected. Brain tissue was weighed, and the brain was pulverized using Dounce's homogenizer after adding 3 times as much volume of PBS as the brain weight. Each of the obtained analytical samples was quantitatively analyzed using a tandem liquid chromatography-mass spectrometer (Tandem LC/MS/MS, API3000 & Agilent 1100 series). Brain permeability of a compound is expressed as a value obtained by dividing the concentration of the compound in the brain by the concentration of the compound in the plasma (B/P ratio), and when the B/P ratio is greater than 1, it means that the concentration in the brain is higher than the one in the blood.

T4 sequence (Q00535 whole entry): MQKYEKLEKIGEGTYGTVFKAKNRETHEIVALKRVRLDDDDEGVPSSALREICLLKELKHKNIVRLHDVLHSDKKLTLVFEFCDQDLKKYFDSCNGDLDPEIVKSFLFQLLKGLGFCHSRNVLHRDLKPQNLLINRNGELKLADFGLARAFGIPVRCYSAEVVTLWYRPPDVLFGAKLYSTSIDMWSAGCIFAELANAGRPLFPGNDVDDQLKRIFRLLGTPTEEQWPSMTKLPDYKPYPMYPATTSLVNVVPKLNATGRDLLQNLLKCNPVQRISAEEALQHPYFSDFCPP
T4 sequence (Q15078 99-307 partner limits assumed): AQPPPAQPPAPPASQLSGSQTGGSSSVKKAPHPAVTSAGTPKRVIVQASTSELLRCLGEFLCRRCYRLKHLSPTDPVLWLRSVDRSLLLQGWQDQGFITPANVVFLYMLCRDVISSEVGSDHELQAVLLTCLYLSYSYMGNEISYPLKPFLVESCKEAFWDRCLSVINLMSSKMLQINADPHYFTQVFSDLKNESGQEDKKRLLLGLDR

Take `Nc1cccc(-c2ccc(O)c(-c3ccnc(N)n3)n2)c1` [Example 16, 6-(3-aminophenyl)-2-(2-aminopyrimidin-4-yl)pyridin-3-ol]: the GI50 in data set [1] (Homo sapiens, HCT-116, 72 h) is 1330 nM; in [2] (Homo sapiens, SH-SY5Y, 72 h), 570 nM; in data set [3] (Homo sapiens, SK-N-SH, 72 h), 2910 nM; in [4] (Homo sapiens, U-87 MG, 72 h), 3600 nM.

Take `CN1CCC(c2cc(-c3nc(-c4ccnc(N)c4F)ccc3O)nc(N)n2)CC1` [Example 34, 2′-amino-6-(2-amino-6-(1-methylpiperidin-4-yl)pyrimidin-4-yl)-3′-fluoro-[2,4′-bipyridin]-5-ol]: the IC50 in data set [5] was 2.1 nM; in data set [6], 2.2 nM; in [7] it was 31.5 nM; in data set [8], 2.2 nM; in data set [9] it was 176 nM. For the same compound, the GI50 worked out at 40 nM in [10]; 20 nM in [1] (72 hrs); 70 nM in data set [11]; 150 nM in data set [12] (72 hrs); 30 nM in [4] (72 hrs). The “Phosphorylation (%) of Tau” value is on record as 103% in [13] (0.003 uM); 27% in [13] (0.01 uM); 13% in data set [13] (0.03 uM); 21% in data set [13] (0.1 uM); 21% in [13] (0.3 uM).

Regarding `Nc1nccc(-c2nc(-c3ccnc(N)c3F)ccc2O)n1` [Example 68, 2′-amino-6-(2-aminopyrimidin-4-yl)-3′-fluoro-[2,4′-bipyridin]-5-oloxalate], the GI50 turned out to be 10 nM in [1] (72 hrs), 10 nM in [2] (72 hrs), 30 nM in [3] (72 hrs) and 100 nM in [4] (72 hrs).

Regarding `Nc1nccc(-c2nc(-c3ccc(O)cc3F)ccc2O)n1` [Example 70, 2-(2-aminopyrimidin-4-yl)-6-(2-fluoro-4-hydroxyphenyl)pyridin-3-ol 2hydrochloride], the GI50 was determined as 530 nM in [1] (72 hrs), 160 nM in data set [2] (72 hrs), 580 nM in [3] (72 hrs) and 1650 nM in [4] (72 hrs).

On to `Nc1nccc(-c2cc(-c3ccnc(N)n3)c(O)cn2)n1` [Example 3, 4,6-bis(2-aminopyrimidin-4-yl)pyridin-3-ol], for which the GI50 in data set [1] (Homo sapiens, HCT-116, 72 h) came to 1150 nM; in data set [2] (Homo sapiens, SH-SY5Y, 72 h) it was 880 nM; in data set [3] (Homo sapiens, SK-N-SH, 72 h), 1430 nM; in data set [4] (Homo sapiens, U-87 MG, 72 h), 2640 nM.

Regarding `Nc1nccc(-c2nc(-c3ccnc(N)c3F)ccc2O)n1` [Example 67, 2′-amino-6-(2-aminopyrimidin-4-yl)-3′-fluoro-[2,4′-bipyridin]-5-ol acetate], the GI50 in [1] (72 hrs) turned out to be 10 nM; in data set [2] (72 hrs) it was 10 nM; in data set [3] (72 hrs), 20 nM; in data set [4] (72 hrs) it was 90 nM. The concentration at 1 h in data set [14] (male, ICR, brain, po, 1 hr, read-out: Concentration in the brain) turned out to be 55.1 ng/g; in [14] (male, ICR, plasma, po, 1 hr, read-out: Concentration in the plasma), 24.9 ng/mL. Further, in [14] (male, ICR, brain/plasma, po, 1 hr, read-out: B/P ratio), the Kp at 1 h came out at 2.21. The Kp at 4 h in data set [14] (male, ICR, brain/plasma, po, 4 hrs, read-out: B/P ratio) was determined as 3.97. The “Concentration in the brain” value in data set [14] (4 hrs) was 15.5 ng/g. The “Concentration in the plasma” value in data set [14] (4 hrs) was 3.9 ng/mL.

As for `Nc1nccc(-c2nc(-c3ccncc3F)ccc2O)n1` [Example 14, 6-(2-aminopyrimidin-4-yl)-3′-fluoro-[2,4′-bipyridin]-5-ol], the GI50 was 590 nM in data set [1] (Homo sapiens, HCT-116, 72 h); 540 nM in [2] (Homo sapiens, SH-SY5Y, 72 h); 1040 nM in data set [3] (Homo sapiens, SK-N-SH, 72 h); 3410 nM in [4] (Homo sapiens, U-87 MG, 72 h).

Consider `Nc1nccc(-c2nc(-c3cccc(O)c3)ccc2O)n1` [Example 13, 2-(2-aminopyrimidin-4-yl)-6-(3-hydroxyphenyl)pyridin-3-ol], for which the GI50 amounted to 6970 nM in [1] (Homo sapiens, HCT-116, 72 h); 680 nM in data set [2] (Homo sapiens, SH-SY5Y, 72 h); 7220 nM in data set [3] (Homo sapiens, SK-N-SH, 72 h); 4600 nM in data set [4] (Homo sapiens, U-87 MG, 72 h).

Consider `Nc1nccc(-c2nc(-c3ccnc(N)c3F)ccc2O)n1` [Example 69, 2′-amino-6-(2-aminopyrimidin-4-yl)-3′-fluoro-[2,4′-bipyridin]-5-ol 2malonate], for which the GI50 in data set [1] (72 hrs) turned out to be 80 nM; in data set [2] (72 hrs) it was 4 nM; in data set [3] (72 hrs), 20 nM; in data set [4] (72 hrs), 90 nM.

As for `Nc1nccc(-c2nc(-c3ccc(O)c(F)c3F)ccc2O)n1` [Example 20, 2-(2-aminopyrimidin-4-yl)-6-(2,3-difluoro-4-hydroxyphenyl)pyridin-3-ol], the GI50 in [1] (Homo sapiens, HCT-116, 72 h) came out at 520 nM; in data set [2] (Homo sapiens, SH-SY5Y, 72 h) it was 190 nM; in data set [3] (Homo sapiens, SK-N-SH, 72 h), 390 nM; in data set [12] (Homo sapiens, T98G, 72 h) it was 4310 nM; in data set [4] (Homo sapiens, U-87 MG, 72 h), 1180 nM.

The values above are taken from patent US20200190062A1, “HETEROCYCLIC COMPOUND AND PHARMACEUTICAL COMPOSITION COMPRISING SAME” (BEYONDBIO INC., priority 2015, published 2020).
